Laboratory results as given in paper PMC8678048 (Frontiers in Microbiology, 2021).
Positions of bridges follow the written chain, without caps; N, C: chain ends. Residues, ends and D or L forms follow the SMILES beside them.

Target: ASFV pS273R protease (African swine fever virus, UniProt Q00946)
Type: biochemical

Chain of ASFV pS273R protease (Q00946 whole entry, looked up): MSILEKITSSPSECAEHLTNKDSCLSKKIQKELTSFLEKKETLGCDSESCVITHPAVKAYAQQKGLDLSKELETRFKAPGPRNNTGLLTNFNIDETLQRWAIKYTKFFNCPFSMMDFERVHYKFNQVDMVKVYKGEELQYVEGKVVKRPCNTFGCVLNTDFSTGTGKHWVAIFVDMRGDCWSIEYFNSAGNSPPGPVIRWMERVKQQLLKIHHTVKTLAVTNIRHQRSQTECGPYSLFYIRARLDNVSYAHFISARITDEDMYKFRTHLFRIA

CC[C@H](C)[C@@H]1NC(=O)CNC(=O)[C@H](CO)NC(=O)[C@@H]2CSSC[C@@H](C(=O)N[C@@H](Cc3ccc(O)cc3)C(=O)O)NC(=O)[C@H](CCCCN)NC(=O)[C@@H]3CSSC[C@H](NC(=O)[C@H](CCC(N)=O)NC(=O)[C@H](Cc4ccc(O)cc4)NC(=O)[C@H](CCC(N)=O)NC(=O)[C@H](CC(N)=O)NC(=O)[C@H](Cc4ccccc4)NC(=O)[C@@H]4CCCN4C(=O)[C@@H](NC(=O)CNC(=O)[C@H](Cc4ccc(O)cc4)NC(=O)CN)CSSC[C@H](NC(=O)[C@H](Cc4ccc(O)cc4)NC(=O)CNC(=O)CNC(=O)[C@H](CCCCN)NC(=O)[C@H](Cc4ccc(O)cc4)NC(=O)CNC(=O)[C@H](CCCNC(=N)N)NC1=O)C(=O)N[C@@H](CCCCN)C(=O)NCC(=O)N[C@@H]([C@@H](C)O)C(=O)N[C@@H](Cc1ccccc1)C(=O)N[C@@H](CCCCN)C(=O)N[C@@H](CCC(N)=O)C(=O)N[C@@H]([C@@H](C)O)C(=O)N3)C(=O)N[C@@H](Cc1c[nH]cn1)C(=O)N[C@@H](CO)C(=O)N[C@@H](Cc1c[nH]cn1)C(=O)N2 [OPTX-1] (H-GYGCPFNQYQCHSHCSGIRGYKGGYCKGTFKQTCKCY-OH; disulfide 4-26, 11-34, 15-36 (inferred); N-terminus and C-terminus assumed)
mode of inhibition of pS273R protease: competitive inhibitor of the pS273R protease
